26 molecules from patent US11058678B2 (Enanta Pharmaceuticals, Inc., priority 2018, dated 2021) can be followed below.

Broadly, the EC50 is the concentration giving half of the maximal effect.

The subject of the assay is HBV (2.2.15 cells). Briefly: Antiviral activity in 2.2.15 cells: reduction of viral product accumulation (qPCR of lysates, HBsAg or HBeAg ELISA). It counts as cell-based, hepatitis B virus (HBV). As to conditions: Hepatitis B virus, 120 h, day 5 post treatment, 50% reduction of viral product accumulation in lysates or supernatants vs no drug controls, readout (qPCR, HBsAg, HBeAg) not specified. Here is the method: 2.2.15 cells are passaged upon attaining confluency in DMEM/F12 media in the presence of 10% FBS, Penn/Strep, and 250 ug/mL G418. Novel compounds are 5 fold serially diluted in DMSO and added to 96 well plates containing 35,000 cells/well at a 1:200 dilution so that the final concentration of DMSO is 0.5%. On day 5, post treatment cell lysates and supernatants are harvested for analysis.
Cells are lysed using Agilent Sidestep Lysis buffer, diluted 1:100 and quantified via quantitative real time PCR. Commercially available ELISA kits are used to quantitate the viral proteins HBsAg (Alpco) or HBeAg (US Biological) by following the manufacturer's recommended protocol after diluting samples to match the linear range of their respective assays. Irrespective of readout, compound concentrations that reduce viral product accumulation in the cell lysates or supernatants by 50% relative to no drug controls (EC50) are reported; EC50 ranges are as follows: A<0.1 μM; B 0.1-1 μM; C>1 μM.
Background: In qPCR the cycle at which signal appears reflects the starting amount.

As for `COCCCOc1cc2c(cc1-c1ccc3c(c1)OCCO3)-c1cc(=O)c(C(=O)O)cn1[C@H](C(C)(C)C)C2` [Example 31, (S)-6-(tert-butyl)-10-(2,3-dihydrobenzo[b][1,4]dioxin-6-yl)-9-(3-methoxypropoxy)-2-oxo-6,7-dihydro-2H-pyrido[2,1-a]isoquinoline-3-carboxylic Acid], the EC50 is under 100 nM.

In turn, `COCCCOc1cc2c(cc1-c1cn(C)nc1C)-c1cc(=O)c(C(=O)O)cn1[C@H](C(C)(C)C)C2` [Example 32, (S)-6-(tert-butyl)-10-(1,3-dimethyl-1H-pyrazol-4-yl)-9-(3-methoxypropoxy)-2-oxo-6,7-dihydro-2H-pyrido[2,1-a]isoquinoline-3-carboxylic Acid] came in with an EC50 of under 100 nM.

On to `COCCCOc1cc2c(cc1-c1c(C)nn(C)c1C)-c1cc(=O)c(C(=O)O)cn1[C@H](C(C)(C)C)C2` [Example 33, (S)-6-(tert-butyl)-9-(3-methoxypropoxy)-2-oxo-10-(1,3,5-trimethyl-1H-pyrazol-4-yl)-6,7-dihydro-2H-pyrido[2,1-a]isoquinoline-3-carboxylic Acid], for which the EC50 is under 100 nM.

`CCn1cc(-c2cc3c(cc2OCCCOC)C[C@@H](C(C)(C)C)n2cc(C(=O)O)c(=O)cc2-3)cn1` [Example 34, (S)-6-(tert-butyl)-10-(1-ethyl-1H-pyrazol-4-yl)-9-(3-methoxypropoxy)-2-oxo-6,7-dihydro-2H-pyrido[2,1-a]isoquinoline-3-carboxylic Acid] yielded a half-maximal effective concentration (EC50) of under 100 nM.

`COCCCOc1cc2c(cc1-c1nnnn1C)-c1cc(=O)c(C(=O)O)cn1[C@H](C(C)(C)C)C2` [Example 35, (S)-6-(tert-butyl)-9-(3-methoxypropoxy)-10-(1-methyl-1H-tetrazol-5-yl)-2-oxo-6,7-dihydro-2H-pyrido[2,1-a]isoquinoline-3-carboxylic Acid] had an EC50 of under 100 nM.

Consider `COCCCOc1cc2c(cc1-c1nnco1)-c1cc(=O)c(C(=O)O)cn1[C@H](C(C)(C)C)C2` [Example 36, (S)-6-(tert-butyl)-9-(3-methoxypropoxy)-10-(1,3,4-oxadiazol-2-yl)-2-oxo-6,7-dihydro-2H-pyrido[2,1-a]isoquinoline-3-carboxylic Acid], for which the EC50 was under 100 nM.

Regarding `COCCCOc1cc2c(cc1-c1ccc(OC(F)(F)F)cc1)-c1cc(=O)c(C(=O)O)cn1[C@H](C(C)(C)C)C2` [Example 37, (S)-6-(tert-butyl)-9-(3-methoxypropoxy)-2-oxo-10-(4-(trifluoromethoxy)phenyl)-6,7-dihydro-2H-pyrido[2,1-a]isoquinoline-3-carboxylic Acid], the EC50 was over 1000 nM.

In the case of `COCCCOc1cc2c(cc1-c1ccc(OC(C)C)cc1)-c1cc(=O)c(C(=O)O)cn1[C@H](C(C)(C)C)C2` [Example 38, (S)-6-(tert-butyl)-10-(4-isopropoxyphenyl)-9-(3-methoxypropoxy)-2-oxo-6,7-dihydro-2H-pyrido[2,1-a]isoquinoline-3-carboxylic Acid], the EC50 is over 1000 nM.

As to `COCCCOc1cc2c(cc1-c1ccc3c(c1)OCCC3)-c1cc(=O)c(C(=O)O)cn1[C@H](C(C)(C)C)C2` [Example 39, (S)-6-(tert-butyl)-10-(chroman-7-yl)-9-(3-methoxypropoxy)-2-oxo-6,7-dihydro-2H-pyrido[2,1-a]isoquinoline-3-carboxylic Acid], the EC50 is over 1000 nM.

`COCCCOc1cc2c(cc1-c1ccc(OC3CC3)cc1)-c1cc(=O)c(C(=O)O)cn1[C@H](C(C)(C)C)C2` [Example 40, (S)-6-(tert-butyl)-10-(4-cyclopropoxyphenyl)-9-(3-methoxypropoxy)-2-oxo-6,7-dihydro-2H-pyrido[2,1-a]isoquinoline-3-carboxylic Acid] returned an EC50 of over 1000 nM.

In the case of `COCCCOc1cc2c(cc1C1CCCCO1)-c1cc(=O)c(C(=O)O)cn1[C@H](C(C)(C)C)C2` (stereo partly drawn) [Example 41, (6S)-6-(tert-butyl)-9-(3-methoxypropoxy)-2-oxo-10-(tetrahydro-2H-pyran-2-yl)-6,7-dihydro-2H-pyrido[2,1-a]isoquinoline-3-carboxylic Acid], the 50% effective concentration (EC50) was under 100 nM.

Molecule `COCCCOc1cc2c(cc1C1=COCCC1)-c1cc(=O)c(C(=O)O)cn1[C@H](C(C)(C)C)C2` [Example 42, (S)-6-(tert-butyl)-10-(3,4-dihydro-2H-pyran-5-yl)-9-(3-methoxypropoxy)-2-oxo-6,7-dihydro-2H-pyrido[2,1-a]isoquinoline-3-carboxylic Acid] displayed an EC50 of under 100 nM.

`CCc1nnc(-c2cc3c(cc2OCCCOC)C[C@@H](C(C)(C)C)n2cc(C(=O)O)c(=O)cc2-3)o1` [Example 43, (S)-6-(tert-butyl)-10-(5-ethyl-1,3,4-oxadiazol-2-yl)-9-(3-methoxypropoxy)-2-oxo-6,7-dihydro-2H-pyrido[2,1-a]isoquinoline-3-carboxylic Acid] showed an EC50 of under 100 nM.

For `COCCCOc1cc2c(cc1-c1cnc(OC)nc1)-c1cc(=O)c(C(=O)O)cn1[C@H](C(C)(C)C)C2` [Example 44, (S)-6-(tert-butyl)-9-(3-methoxypropoxy)-10-(2-methoxypyrimidin-5-yl)-2-oxo-6,7-dihydro-2H-pyrido[2,1-a]isoquinoline-3-carboxylic Acid], the concentration giving a half-maximal response (EC50) is under 100 nM.

Consider `COCCCOc1cc2c(cc1-c1cc(OC)nnc1OC)-c1cc(=O)c(C(=O)O)cn1[C@H](C(C)(C)C)C2` [Example 45, (S)-6-(tert-butyl)-10-(3,6-dimethoxypyridazin-4-yl)-9-(3-methoxypropoxy)-2-oxo-6,7-dihydro-2H-pyrido[2,1-a]isoquinoline-3-carboxylic Acid], for which the EC50 is under 100 nM.

In the case of `COCCCOc1cc2c(cc1-c1ccc3oncc3c1)-c1cc(=O)c(C(=O)O)cn1[C@H](C(C)(C)C)C2` [Example 47, (S)-10-(benzo[d]isoxazol-5-yl)-6-(tert-butyl)-9-(3-methoxypropoxy)-2-oxo-6,7-dihydro-2H-pyrido[2,1-a]isoquinoline-3-carboxylic Acid], the EC50 was over 1000 nM.

Take `COCCCOc1cc2c(cc1-c1cnnn1C)-c1cc(=O)c(C(=O)O)cn1[C@H](C(C)(C)C)C2` [Example 48, (S)-6-(tert-butyl)-9-(3-methoxypropoxy)-10-(1-methyl-1H-1,2,3-triazol-5-yl)-2-oxo-6,7-dihydro-2H-pyrido[2,1-a]isoquinoline-3-carboxylic Acid]: the half-maximal effective concentration (EC50) was under 100 nM.

For `COCCCOc1cc2c(cc1-c1nnc(C)o1)-c1cc(=O)c(C(=O)O)cn1[C@H](C(C)(C)C)C2` [Example 49, (S)-6-(tert-butyl)-9-(3-methoxypropoxy)-10-(5-methyl-1,3,4-oxadiazol-2-yl)-2-oxo-6,7-dihydro-2H-pyrido[2,1-a]isoquinoline-3-carboxylic Acid], the EC50 was under 100 nM.

With `COCCCOc1cc2c(cc1N1CCCC1)-c1cc(=O)c(C(=O)O)cn1[C@@H](C(C)(C)C)C2` [Example 50, (R)-6-(tert-butyl)-9-(3-methoxypropoxy)-2-oxo-10-(pyrrolidin-1-yl)-6,7-dihydro-2H-pyrido[2,1-a]isoquinoline-3-carboxylic Acid], the EC50 was under 100 nM.

For the molecule `COCCCOc1cc2c(cc1-n1cccn1)-c1cc(=O)c(C(=O)O)cn1[C@@H](C(C)(C)C)C2` [Example 51, (R)-6-(tert-butyl)-9-(3-methoxypropoxy)-2-oxo-10-(1H-pyrazol-1-yl)-6,7-dihydro-2H-pyrido[2,1-a]isoquinoline-3-carboxylic Acid], the EC50 was under 100 nM.

For `COCCCOc1cc2c(cc1-n1ccc3ccccc31)-c1cc(=O)c(C(=O)O)cn1[C@H](C(C)(C)C)C2` [Example 52, (S)-6-(tert-butyl)-10-(1H-indol-1-yl)-9-(3-methoxypropoxy)-2-oxo-6,7-dihydro-2H-pyrido[2,1-a]isoquinoline-3-carboxylic Acid], the EC50 was under 100 nM.

The molecule `COCCCOc1cc2c(cc1-c1nnc(C(F)(F)F)o1)-c1cc(=O)c(C(=O)O)cn1[C@H](C(C)(C)C)C2` [Example 53, (S)-6-(tert-butyl)-9-(3-methoxypropoxy)-2-oxo-10-(5-(trifluoromethyl)-1,3,4-oxadiazol-2-yl)-6,7-dihydro-2H-pyrido[2,1-a]isoquinoline-3-carboxylic Acid] had a concentration giving a half-maximal response (EC50) of under 100 nM.

`COCCCOc1cc2c(cc1N1CCC(F)(F)C1)-c1cc(=O)c(C(=O)O)cn1[C@H](C(C)(C)C)C2` [Example 54, (S)-6-(tert-butyl)-10-(3,3-difluoropyrrolidin-1-yl)-9-(3-methoxypropoxy)-2-oxo-6,7-dihydro-2H-pyrido[2,1-a]isoquinoline-3-carboxylic Acid] showed a concentration giving a half-maximal response (EC50) of 100 to 1000 nM.

Molecule `COCCCOc1cc2c(cc1N1CCC1)-c1cc(=O)c(C(=O)O)cn1[C@H](C(C)(C)C)C2` [Example 55, (S)-10-(azetidin-1-yl)-6-(tert-butyl)-9-(3-methoxypropoxy)-2-oxo-6,7-dihydro-2H-pyrido[2,1-a]isoquinoline-3-carboxylic Acid] came in with an EC50 of under 100 nM.

`COCCCOc1cc2c(cc1-c1ccc(OC(F)F)cc1)-c1cc(=O)c(C(=O)O)cn1[C@H](C(C)(C)C)C2` [Example 56, (S)-6-(tert-butyl)-10-(4-(difluoromethoxy)phenyl)-9-(3-methoxypropoxy)-2-oxo-6,7-dihydro-2H-pyrido[2,1-a]isoquinoline-3-carboxylic Acid] displayed a 50% effective concentration (EC50) of under 100 nM.

As to `COCCCOc1cc2c(cc1-c1cccc(OC(F)(F)F)c1)-c1cc(=O)c(C(=O)O)cn1[C@H](C(C)(C)C)C2` [Example 57, (S)-6-(tert-butyl)-9-(3-methoxypropoxy)-2-oxo-10-(3-(trifluoromethoxy)phenyl)-6,7-dihydro-2H-pyrido[2,1-a]isoquinoline-3-carboxylic Acid], the EC50 is over 1000 nM.
